Consider 11 compounds from PubChem BioAssay (NCI).

Test systems include UACC-62 melanoma; SK-OV-3 ovarian; EKVX NSCLC; RXF 393 renal; A498 renal; SR leukemia; HCC-2998 colon.
Assay in all cases: DTP human tumour cell line panel, 48 h

“And” between values parts separate entries of the source, which are not always exact repeats. Equal entries are not always repeated.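 These data come from cells grown in 96-well plates and exposed to compound for 48 hours at five concentrations. Abbreviation: GI50, concentration required for 50% inhibition of growth. TGI denotes the concentration required for complete inhibition of growth.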 A value given as a limit tells only on which side of the number the result lay.

Consider `CCN1CCN(c2cc(C(=O)Nc3cccc(Nc4ccc5c(OC)cccc5n4)c3)cc(C(F)(F)F)c2)CC1`, for which the GI50 (as a rule, the concentration that inhibits growth by half) is 1.5 µM in the assay with UACC-62 melanoma; 4.6 µM in the assay on SK-OV-3 ovarian; 3.07 µM with EKVX NSCLC; 0.918 µM in the assay with RXF 393 renal; 4.94 µM in the assay with A498 renal; 0.883 µM in the assay on SR leukemia. The GI50 in the assay on HCC-2998 colon was 0.72 µM. Moreover, the TGI (commonly the concentration giving total growth inhibition) was determined as 5.77 µM in the assay on UACC-62 melanoma; 11 µM with SK-OV-3 ovarian; 9.46 µM with EKVX NSCLC; 4.86 µM in the assay on RXF 393 renal; 10.5 µM with A498 renal; 11.7 µM with SR leukemia. The same compound gave a TGI with HCC-2998 colon of 2.01 µM.

As to `Cc1nn(C)c2ncnc(N/N=C/c3cccc(O)c3O)c12`, the GI50 is 1.69 µM in the assay on UACC-62 melanoma; 2.24 µM in the assay with SK-OV-3 ovarian; 2.78 µM with EKVX NSCLC; 0.513 µM in the assay with RXF 393 renal; 2.97 µM in the assay with A498 renal; 0.269 µM with SR leukemia. In addition, in the assay with HCC-2998 colon, the GI50 was 0.853 µM. The total growth inhibition concentration (TGI) was 5.98 µM with UACC-62 melanoma; over 81 µM with SK-OV-3 ovarian; over 100 µM in the assay with EKVX NSCLC; over 27.7 µM in the assay on RXF 393 renal; 16.3 µM in the assay with A498 renal; 16.3 µM in the assay on SR leukemia. The TGI in the assay on HCC-2998 colon is over 100 µM.

Turning to `COc1cc(S(=O)(=O)Nc2nc(-c3ccc(N4C(=O)C(C)SC4c4ccccc4O)cc3)cs2)ccc1Cl` (centres undefined), the GI50 in the assay with UACC-62 melanoma was 39.9 µM; in the assay on SK-OV-3 ovarian, 50.6 µM; with EKVX NSCLC it was 42.8 µM; with RXF 393 renal it was over 100 µM; in the assay on A498 renal it was 51.3 µM; with SR leukemia, 43.3 µM. Moreover, the GI50 in the assay with HCC-2998 colon is 50.3 µM. Also, the TGI in the assay on UACC-62 melanoma, in the assay on SK-OV-3 ovarian, in the assay with EKVX NSCLC, in the assay on RXF 393 renal, with A498 renal and in the assay with SR leukemia was over 100 µM each time. In the assay on HCC-2998 colon, this compound gave a TGI of over 100 µM.

In the case of `CN1CCN(CCCOc2ccc3nc(Nc4ccc(F)c(F)c4)ccc3c2)CC1`, the GI50 with SK-OV-3 ovarian is 2.59 µM; in the assay on EKVX NSCLC it was 3.17 µM; in the assay on RXF 393 renal it was 1.52 µM; with A498 renal, 1.26 µM; with SR leukemia, 1.71 µM; in the assay on HCC-2998 colon, 1.71 µM. Further, the TGI in the assay on SK-OV-3 ovarian is 6.9 µM; in the assay on EKVX NSCLC, 13.1 µM; in the assay on RXF 393 renal it was 4.36 µM; with A498 renal it was 4.03 µM; with SR leukemia, 6.95 µM; in the assay on HCC-2998 colon, 3.31 µM.

Turning to `COc1cc(/C=C/C(=O)CC(=O)/C=C/c2cc(OC)c(O)c(OC)c2)cc(OC)c1O`, the GI50 with UACC-62 melanoma is 5.51 µM; in the assay with SK-OV-3 ovarian, 32 µM; with EKVX NSCLC, 18.7 µM; in the assay on RXF 393 renal, 2.63 µM; with A498 renal, 15.6 µM; in the assay with SR leukemia, 7.56 µM. Besides, the TGI was 24 µM and > 100 µM with SK-OV-3 ovarian; 25 µM and 71.2 µM with EKVX NSCLC; 7.3 µM and 16.1 µM in the assay on RXF 393 renal; 12.2 µM and 37.5 µM in the assay with A498 renal; 25 µM and > 100 µM in the assay on SR leukemia; 11.6 µM with HCC-2998 colon.

With `Cc1ccc(S(=O)(=O)n2cc([C@@]3(O)C[C@H](CSC#N)OC3=O)c3ccccc32)cc1`, the GI50 in the assay with UACC-62 melanoma is 15 µM; with SK-OV-3 ovarian, 58.8 µM; in the assay with EKVX NSCLC, over 100 µM; in the assay with RXF 393 renal it was 2.13 µM; in the assay with A498 renal, 14.7 µM; in the assay with SR leukemia it was 0.41 µM. Besides, the GI50 in the assay with HCC-2998 colon was 27 µM. Moreover, the total growth inhibition concentration (TGI) in the assay with UACC-62 melanoma was 35.5 µM; in the assay on SK-OV-3 ovarian, over 100 µM; with EKVX NSCLC, over 100 µM; with RXF 393 renal it was 7.61 µM; in the assay on A498 renal, 46.5 µM; in the assay with SR leukemia, 4.76 µM. In addition, in the assay with HCC-2998 colon, the total growth inhibition concentration (TGI) was over 100 µM.

With `CN1CCN(Cc2ccc(NC(=O)c3[nH]ncc3Nc3ncnc4[nH]ccc34)cc2)CC1`, the GI50 in the assay on UACC-62 melanoma was 0.411 µM; with EKVX NSCLC, 0.368 µM; in the assay with RXF 393 renal, 0.199 µM; with A498 renal it was 0.149 µM; in the assay on SR leukemia it was 0.229 µM; in the assay on HCC-2998 colon, 0.367 µM. The TGI was 1.82 µM in the assay with UACC-62 melanoma; 2.64 µM in the assay on EKVX NSCLC; 0.464 µM with RXF 393 renal; 0.406 µM in the assay on A498 renal; 0.708 µM in the assay on SR leukemia; 1.42 µM in the assay on HCC-2998 colon.

Turning to `COc1cc(C)cc(C(=O)/C=C/c2ccccc2)c1O`, the TGI with UACC-62 melanoma came to 33.6 µM; in the assay on SK-OV-3 ovarian, 83.5 µM; with EKVX NSCLC, 47.8 µM; in the assay on RXF 393 renal, 35.7 µM; in the assay with A498 renal, 33.3 µM; in the assay with SR leukemia, 77.6 µM. In the assay on HCC-2998 colon, this compound displayed a TGI of 38 µM.

As to `COc1c(OC)c(OC)c2c(=O)cc(-c3ccc(OC(C)C)cc3)oc2c1OC`, the TGI was 32 µM with UACC-62 melanoma; over 50.5 µM in the assay on SK-OV-3 ovarian; over 54.9 µM with EKVX NSCLC; over 48.7 µM with RXF 393 renal; 36.9 µM in the assay with A498 renal; over 26.2 µM in the assay on SR leukemia. In the assay on HCC-2998 colon, this compound yielded a TGI of over 53.2 µM.

`CN1CCN(C(=O)c2ccc(NC(=O)Nc3ccc(-c4nc(N5CCOCC5)c5cccn5n4)cc3)cc2)CC1`: the GI50 in the assay with UACC-62 melanoma was 0.034 µM; with SK-OV-3 ovarian, 0.0223 µM; with EKVX NSCLC it was 0.042 µM; with RXF 393 renal, 0.0307 µM; with A498 renal, 0.0172 µM; with SR leukemia, 0.0465 µM. Also, the GI50 with HCC-2998 colon is 0.0352 µM. Besides, the TGI in the assay with UACC-62 melanoma came to 0.189 µM; with SK-OV-3 ovarian, 0.121 µM; in the assay on EKVX NSCLC, 0.703 µM; in the assay with RXF 393 renal it was 0.175 µM; in the assay on A498 renal, 0.0664 µM; in the assay with SR leukemia, 8.7 µM. Also, the TGI in the assay on HCC-2998 colon was 11.8 µM.

With `CCN(CC)CCCNCc1cc(-c2ccccc2)nc2cc(Cl)ccc12`, the GI50 was 1.93 µM with UACC-62 melanoma; 11.7 µM in the assay with SK-OV-3 ovarian; 7.85 µM in the assay with EKVX NSCLC; 2.91 µM with RXF 393 renal; 2.36 µM in the assay on A498 renal; 0.716 µM in the assay with SR leukemia. The GI50 in the assay with HCC-2998 colon was 1.94 µM. Moreover, the TGI in the assay on UACC-62 melanoma was 3.59 µM; with SK-OV-3 ovarian, 24.1 µM; with EKVX NSCLC it was 24.3 µM; with RXF 393 renal, 7.2 µM; in the assay with A498 renal it was 6.14 µM; with SR leukemia it was 5.38 µM. The TGI in the assay on HCC-2998 colon came out at 3.89 µM.
